Structures can show the parent of a compound that is named as a salt.
Assay: eutectic enantioexcess (eeeu) / eutectic solubility of (S)-enantiomer form with corresponding racemic compound
Format: physicochemical
Experimental: The majority of racemic mixtures preferentially form racemic compounds (reference Jacques book). The saturation solubility of a racemic compound and the pure enantiomer in the presence of a solvent is known as the eutectic point. The ratio of the solubility, i.e., the “eutectic enantioexcess” (eeeu), is a useful parameter to assess the chiral upgrade capability for a given system. The eeeu is calculated from the relative solubility of the R- and S-enantiomers: eeeu=([major]−[minor])/([major]+[minor]), where [major] is the solubility of the major enantiomer at the eutectic, and [minor] is the solubility of the minor enantiomer at the eutectic. […] The eeeu can be dependent on temperature in all cases. […]
Physical characterization confirmed that the HCl salt of the racemic compound was a hydrate, which was determined to be a thermodynamically stable crystal form. […] The quantities of solvent and equipment capacity needed to provide chiral upgrade would be impractical and uneconomical. For instance, to upgrade from 90% ee to 98% ee, it was calculated to require 200 L solvent per kg starting material.
From this eeeu, it was calculated that achieving an upgrade from 90% ee to 98% ee would require 46 L solvent per kg starting material which, while an improvement, is still undesirable. […]

O.O=C1CC[C@H](N2Cc3c(OCc4ccc(CN5CCOCC5)cc4)cccc3C2=O)C(=O)N1 [(S)-3-(4-((4-(morpholinomethyl)benzyl)oxy)-1-oxoisoindolin-2-yl)piperidine-2,6-dione hydrate]
eutectic enantioexcess (eeeu) (hydrate with corresponding hydrate racemic compound, 22° C.): 89.2%

O=C1CC[C@H](N2Cc3c(OCc4ccc(CN5CCOCC5)cc4)cccc3C2=O)C(=O)N1 [(S)-3-(4-((4-(morpholinomethyl)benzyl)oxy)-1-oxoisoindolin-2-yl)piperidine-2,6-dione hydrochloride]
absolute solubility: quite low
